Values after ≈ are worked out from the molar mass of the structure shown. Active and inactive are the calls of the source. The calls are words filed in the database; no cut-off is given here.
Columns and labels:
[1] = test system: Mycobacterium tuberculosis; experiment: Antimicrobial activity against Mycobacterium tuberculosis H37Rv by MABA; format: functional
[2] = test system: Mycobacterium tuberculosis; experiment: Antimicrobial activity against Mycobacterium tuberculosis H37Rv incubated for 7 days by alamar blue microplate reader assay; format: functional; conditions: 168 h, time 7 day
[3] = test system: Mycobacterium tuberculosis; experiment: Antimicrobial activity against Mycobacterium tuberculosis H37Rv; format: functional
[4] = Metabolic stability in human liver microsomes assessed as intrinsic clearance; format: ADME, Microsome; conditions: read-out: CLH
[5] = Metabolic stability in human liver microsomes assessed as compound remaining after 60 mins in presence of NADPH; format: ADME, Microsome; conditions: read-out: Stability
[6] = Metabolic stability in human liver assessed as intrinsic clearance; format: ADME, tissue-based; conditions: read-out: CLH
[7] = Metabolic stability in human liver microsomes assessed as half life; format: ADME, Microsome
[8] = test system: Mycobacterium tuberculosis; experiment: Antimicrobial activity against Mycobacterium tuberculosis H37Rv treated with compound diluted mouse serum at 1:8 to 1:64 serial dilution by MABA; format: functional, organism-based
[9] = test system: Mycobacterium tuberculosis; experiment: Bacteriostatic activity against Mycobacterium tuberculosis; format: functional
[10] = test system: Mycobacterium tuberculosis; experiment: Antimicrobial activity against Mycobacterium tuberculosis H37Rv by microdilution method; format: functional

Work on `CC(=O)c1cn(-c2ccc(Br)cc2)c2ccc(O)c(CN3CCCC3)c12` yielded an MIC90 [1] of 0.3 µM (≈ 0.124 µg/mL).

With `O=c1cc(-c2ccccc2O)oc2ccc(O)c(CN3CCC3)c12` the MIC [2] was 1.39 µM (≈ 0.449 µg/mL).

Work on `Oc1ccc2c(c(-c3nnco3)cn2-c2ccc(Br)s2)c1CN1CC2(COC2)C1` yielded an MIC90 [1] of 8 µM (≈ 3.79 µg/mL).

Work on `CCOC(=O)c1c(-c2ccccc2)oc2ccc(O)c(CN3CCC(C)CC3)c12` yielded an MIC [3] of 2.3 µM (≈ 0.905 µg/mL).

Work on `CNC(=O)c1cn(-c2ccc(Br)s2)c2ccc(O)c(CN3CCCCC3)c12` yielded an MIC90 [1] of 9 µM (≈ 4.04 µg/mL).

`CC(=O)c1cn(-c2ccc(Br)cc2)c2ccc(O)c(CN3CC(F)C3)c12` showed an MIC90 [1] of 1 µM (≈ 0.417 µg/mL).

`Oc1ccc2c(c(-c3nnco3)cn2-c2ccc(Br)cc2)c1CN1CC(F)C1` showed an MIC90 [1] of 0.56 µM (≈ 0.248 µg/mL).

`CC(=O)c1cn(-c2ccc(-c3ccccc3)s2)c2ccc(O)c(CN3CCC3)c12` gave a microsomal CLint [4] of 10.7 µL/min/mg, an MIC90 [1] of 0.04 µM (≈ 0.0161 µg/mL) and a remaining at 1 h [5] of 68.6%. For the same compound, the CLint scaled [6] was 9.6 mL/min/kg and the half-life [7] was 2.17 h.

With `Oc1ccc2c(c(-c3nnco3)cn2-c2ccc(Br)cc2)c1CN1CCOCC1` the MIC90 [1] was 4 µM (≈ 1.82 µg/mL).

Work on `Oc1ccc2c(c(-c3nnco3)cn2-c2ccc(Br)cc2)c1CN1CCC1` yielded a microsomal CLint [4] of 13.8 µL/min/mg, an MIC90 [1] of 0.07 µM (≈ 0.0298 µg/mL) and a remaining at 1 h [5] of 61.7%. The CLint scaled [6] was 12.4 mL/min/kg, the half-life [7] was 1.67 h and the Activity [8] was “Active”.

Work on `Oc1ccc2c(c(-c3nnco3)cn2-c2ccc(Br)cc2)c1CN1CCCCC1` yielded a microsomal CLint [4] of 21 µL/min/mg, an MIC90 [1] of 0.07 µM (≈ 0.0317 µg/mL) and a remaining at 1 h [5] of 55%. It also gave a CLint scaled [6] of 18.9 mL/min/kg and a half-life [7] of 1.1 h.

In the case of `CNC(=O)c1c(-c2ccc(O)cc2)oc2ccc(O)c(CC3CCNCC3)c12`, the MIC [9] is reported as 0.06 µM (≈ 0.0228 µg/mL).

Compound `CC(=O)c1cn(-c2cccnc2)c2ccc(O)c(CN3CCC3)c12` has an MIC90 [1] of 100 µM (≈ 32.1 µg/mL).

Compound `CC(=O)c1cn(-c2ccc(Br)s2)c2ccc(O)c(CN3CCCCC3)c12` has an MIC90 [1] of 0.58 µM (≈ 0.251 µg/mL).

Work on `CC(=O)c1cn(-c2ccc(Br)s2)c2ccc(O)c(CN3CC4(COC4)C3)c12` yielded an MIC90 [1] of 2 µM (≈ 0.895 µg/mL).

With `CC(=O)c1c(C)n(-c2ccc(C3CCNCC3)cc2)c2ccc(O)c(CN3CCCCC3)c12` the microsomal CLint [4] was 66.9 µL/min/mg, the MIC90 [1] was 0.14 µM (≈ 0.0624 µg/mL) and the remaining at 1 h [5] was 11.3%. The CLint scaled [6] was 60.2 mL/min/kg and the half-life [7] was 0.345 h.

`CC(=O)c1cn(-c2ccc(Br)cc2)c2ccc(O)c(CN3CCC3)c12` gave an MIC90 [1] of 0.08 µM (≈ 0.0319 µg/mL).

In the case of `CC(=O)c1cn(-c2cccs2)c2ccc(O)c(CN3CCC3)c12`, the MIC90 [1] is reported as 3 µM (≈ 0.979 µg/mL).

For `CC(=O)c1cn(-c2ccc(Br)s2)c2ccc(O)c(CN3CCC3)c12`, the MIC90 [1] was 0.62 µM (≈ 0.251 µg/mL).

With `COC(=O)c1c(NC(=O)c2c(F)c(F)c(F)c(F)c2F)sc2c1CCCCC2` the MIC [10] was 1 µM (≈ 0.419 µg/mL).

In the case of `CC(=O)c1cn(-c2ccc(Br)cc2)c2ccc(O)c(CN3CCC(F)CC3)c12`, the MIC90 [1] is reported as 0.28 µM (≈ 0.125 µg/mL).

`Cc1ccc(-n2cc(-c3nnco3)c3c(CN4CCC4)c(O)ccc32)s1` gave an MIC90 [1] of 3 µM (≈ 1.1 µg/mL).

`CC(=O)c1cn(-c2cnccn2)c2ccc(O)c(CN3CCC3)c12` gave an MIC90 [1] of 199 µM (≈ 64.2 µg/mL).

With `CC(=O)c1cn(-c2ccc(C)s2)c2ccc(O)c(CN3CCC3)c12` the MIC90 [1] was 0.37 µM (≈ 0.126 µg/mL).

`Oc1ccc2c(c(-c3nnco3)cn2-c2ccc(Br)cc2)c1CN1CCCC1` showed a microsomal CLint [4] of 21.2 µL/min/mg, an MIC90 [1] of 0.07 µM (≈ 0.0308 µg/mL) and a remaining at 1 h [5] of 53%. For the same compound, the CLint scaled [6] was 19 mL/min/kg and the half-life [7] was 1.09 h.

`CC(=O)c1c(C)n(-c2ccc(Br)cc2)c2ccc(O)c(CN3CCCCC3)c12` showed a microsomal CLint [4] of 23.9 µL/min/mg, an MIC90 [1] of 0.28 µM (≈ 0.124 µg/mL) and a remaining at 1 h [5] of 47.3%. It also gave a CLint scaled [6] of 21.5 mL/min/kg and a half-life [7] of 0.967 h.

For `COc1ccc(OC)c(-c2ccc(-c3cn(CCc4ccc(C(=O)N(C)C)cc4)nn3)cn2)c1`, the MIC [3] was 0.25 µM (≈ 0.114 µg/mL).

In the case of `CC(=O)c1ccc(-n2cc(C(C)=O)c3c(CN4CCC4)c(O)ccc32)s1`, the MIC90 [1] is reported as 5 µM (≈ 1.84 µg/mL).

Compound `CC(=O)c1cn(-c2ccc(Br)cc2)c2ccc(O)c(CN3CCCCC3)c12` has an MIC90 [1] of 0.07 µM (≈ 0.0299 µg/mL).

Work on `CC(=O)c1cn(-c2ncccn2)c2ccc(O)c(CN3CCC3)c12` yielded an MIC90 [1] of 99 µM (≈ 31.9 µg/mL).

With `O=c1cc(-c2ccc(O)cc2)oc2ccc(O)c(CN3CCC3)c12` the MIC [2] was 1.39 µM (≈ 0.449 µg/mL).

Work on `Oc1ccc2c(c(-c3nnco3)cn2-c2ccc(Br)s2)c1CN1CCC1` yielded an MIC90 [1] of 1 µM (≈ 0.431 µg/mL).

With `Oc1ccc2c(c(-c3nnco3)cn2-c2ccc(Br)cc2)c1CN1CC2(COC2)C1` the MIC90 [1] was 1 µM (≈ 0.467 µg/mL).

Reference: ChEMBL document CHEMBL6078722, “Structure-based development of N-Arylindole derivatives as Pks13 inhibitors against Mycobacterium tuberculosis” (Eur J Med Chem, 2025)
